Test results from ChEMBL document CHEMBL2401647, “High potency improvements to weak aryl uracil HCV polymerase inhibitor leads” (Bioorg Med Chem Lett, 2013).
≈ marks a conversion by molar mass, not a printed value.

Columns and labels:
[1] = Permeability of the compound; format: ADME; conditions: not told; read-out: permeability
[2] = Solubility of the compound; format: physicochemical
[3] = test system: Hepatitis C virus; assay: Antiviral activity against Hepatitis C virus genotype 1b infected in human HuH7 cells; format: functional, organism-based, Hepacivirus hominis; conditions: Huh-7
[4] = test system: Hepatitis C virus; assay: Antiviral activity against Hepatitis C virus genotype 1a infected in human HuH7 cells; format: functional, organism-based, Hepacivirus hominis; conditions: subtype 1a, Huh-7
[5] = test system: Hepatitis C virus; assay: Inhibition of Hepatitis C virus genotype 1b NS5B polymerase; design: species or system Hepatitis C virus subtype 1b
[6] = Inhibition of Hepatitis C virus genotype 1a NS5B polymerase; design: species or system Hepatitis C virus subtype 1a
[7] = AUC in rat; format: ADME, organism-based; conditions: plasma
[8] = AUC in po dosed rat; format: ADME, organism-based; conditions: plasma
[9] = Half life in iv dosed rat; format: ADME, organism-based; conditions: in vivo
[10] = Oral bioavailability in rat; format: ADME, organism-based; conditions: in vivo
[11] = Cytotoxicity against human HuH7 cells; format: cell-based; conditions: Huh-7 cells, read-out: TD50 (the source's name)

SMILES	Papp [1]	solubility [2]	EC50 [3]	EC50 [4]	IC50 [5]	IC50 [6]	AUC [7]	AUC [8]	half-life [9]	bioavailability [10]	CC50 [11]
COc1c(C(=O)Nc2ccc(NS(C)(=O)=O)cc2)cc(-n2ccc(=O)[nH]c2=O)cc1C(C)(C)C	0.2 ×10⁻⁶ cm/s	13 µM (≈ 6.33 µg/mL)	50 nM	0.27 µM	30 nM	20 nM					
COc1c(C(=O)Nc2ccccc2)cc(N2CCC(=O)NC2=O)cc1C(C)(C)C	1.4 ×10⁻⁶ cm/s	12 µM (≈ 4.75 µg/mL)	1030 nM	3.67 µM	750 nM	890 nM	2190 ng·h/mL	330 ng·h/mL	30 min	15%	
COc1ccc(N2CCC(=O)NC2=O)cc1C(C)(C)C	5.5 ×10⁻⁶ cm/s	73 µM (≈ 20.2 µg/mL)	> 100000 nM	> 100 µM		26000 nM	12400 ng·h/mL	5570 ng·h/mL	228 min	45%	
CC(C)(C)c1cc(-n2ccc(=O)[nH]c2=O)cc(C(=O)Nc2ccc(NS(C)(=O)=O)cc2)c1O			94 nM	0.59 µM	10 nM	38 nM					
COc1c(C(=O)Nc2ccc(OS(C)(=O)=O)cc2)cc(N2CCC(=O)NC2=O)cc1C(C)(C)C			860 nM	3.4 µM	1040 nM	670 nM					> 50 µM
CC(C)(C)c1cc(N2CCC(=O)NC2=O)ccc1O			> 100000 nM	> 100 µM	23000 nM	71000 nM					
CC(C)(C)c1cc(N2CCC(=O)NC2=O)cc(C(=O)Nc2ccc(NS(=O)(=O)CCN3CCOCC3)cc2)c1O			420 nM	1.96 µM	7 nM	50 nM					
COc1c(C(=O)Nc2ccc(N)cc2)cc(N2CCC(=O)NC2=O)cc1C(C)(C)C			4240 nM	> 50 µM	1240 nM	2060 nM					
COc1c(C(=O)Nc2ccc(N(C)S(C)(=O)=O)cc2)cc(N2CCC(=O)NC2=O)cc1C(C)(C)C			560 nM	5.49 µM	830 nM	770 nM					> 50 µM
CC(C)(C)c1cc(N2CCC(=O)NC2=O)cc(C(=O)Nc2ccc(NS(C)(=O)=O)cc2)c1O			50 nM	0.39 µM	2 nM	20 nM					
COc1c(C(=O)Nc2ccc(NC(C)=O)cc2)cc(N2CCC(=O)NC2=O)cc1C(C)(C)C					5120 nM	3420 nM					
COc1c(C(=O)Nc2ccc(NS(=O)(=O)CCN3CCOCC3)cc2)cc(N2CCC(=O)NC2=O)cc1C(C)(C)C	0.1 ×10⁻⁶ cm/s	74 µM (≈ 43.5 µg/mL)	580 nM	5.31 µM	310 nM	110 nM	2540 ng·h/mL		36 min	0%	
CC(C)(C)c1cc(N2CCC(=O)NC2=O)cc(C(=O)Nc2ccc(OS(C)(=O)=O)cc2)c1O			1130 nM	4.65 µM	30 nM	180 nM					> 50 µM
COc1c(C(=O)Nc2ccc(NS(C)(=O)=O)cc2)cc(N2CCC(=O)NC2=O)cc1C(C)(C)C	0.5 ×10⁻⁶ cm/s	2 µM (≈ 0.977 µg/mL)	20 nM	0.06 µM	20 nM	10 nM	3380 ng·h/mL	50 ng·h/mL	66 min	1.5%	
CC(C)(C)c1cc(N2CCC(=O)NC2=O)cc(C(=O)Nc2cccc(NS(C)(=O)=O)c2)c1O			7560 nM	27.8 µM	50 nM	360 nM					> 50 µM
CC(C)(C)c1cc(N2CCC(=O)NC2=O)cc(C(=O)NCc2ccccc2)c1O			15300 nM	14.2 µM	940 nM	8590 nM					
CN(c1ccc(NC(=O)c2cc(N3CCC(=O)NC3=O)cc(C(C)(C)C)c2O)cc1)S(C)(=O)=O			1040 nM	3.55 µM	30 nM	460 nM					> 50 µM
CC(C)(C)c1cc(N2CCC(=O)NC2=O)cc(C(=O)Nc2ccccc2)c1O			6310 nM	18.6 µM	230 nM	4280 nM					
